This passage reports IC50 results from US11286263B2, “Macrocyclic fluorine substituted indole derivatives” (The Broad Institute, Inc., priority 2017, dated 2022).

Where a name gives a salt, the structure may show the parent alone.

One test has as its target BCL-XL (Homo sapiens (Human), UniProt Q07817). The experiment in a line: Protein-protein interaction assay BCL-XL/Bad BH3 peptide (BCL-XL assay), TR-FRET. The class given is binding. Particulars: median. Here is the method: Assay 2 Protein-Protein Interaction Assay: BCL-XL/Bad BH3 Peptide (BCL-XL Assay)
The dose-dependent inhibition by the compounds described in this invention of the interaction between BCL-XL and the BH3 domain of Bad (both human) was determined using a steady state binding competition assay with time-resolved fluorescence energy transfer (TR-FRET) readout. For that purpose BCL-XL (amino acids 1-212, C-terminal fused to a hexahistidine (6× His) tag (SEQ ID 3) and a synthetic Bad BH3-derived peptide of sequence Biotin-PEG2-PEG2-NLWAAQRYGRELRR-Nle-SDEFVDSFKK-amide (SEQ ID 4) served as protein receptor and tracer ligand respectively. The recombinant BCL-XL protein (expressed in Ecol) was purchased from BPS Bioscience (San Diego, Calif., USA). The Bad BH3-derived peptide can be obtained from e.g. Biosyntan (Berlin, Germany).
In the assay 11 different concentrations of each compound (0.1 nM, 0.33 nM, 1.1 nM, 3.8 nM, 13 nM, 44 nM, 0.15 μM, 0.51 μM, 1.7 μM, 5.9 μM and 20 μM) were typically measured as duplicates in the same microtiter plate. For that, 100-fold concentrated DMSO solutions were prepared by serial dilutions (1:3.4) of a 2 mM stock solution in a clear, 384-well microtiter plate (Greiner Bio-One, Frickenhausen, Germany). From there, 50 nl were transferred in a dark test plate (Greiner Bio-One, Frickenhausen, Germany). The assay was initiated by addition of 2 μl of a 2,5-fold concentrated His-BCL-XL solution (usually for a 1 nM end concentration in 5 μl reaction volume) in aqueous assay buffer [50 mM Tris/HCl pH 7, 100 mM sodium chloride (NaCl), 50 μM potassium fluoride (KF), 0.005% Tween-20, 2 mM DTT, 0.1% bovine gamma globulin (BGG)] to the compounds in the assay plate. This was followed by a 10-minute incubation step at 22° C. for pre-equilibration of the putative complex between His-BCL-XL and the compounds. After that, 3 μl of a 1.67-fold concentrated solution (in assay buffer) consisting of Bad BH3-derived peptide (1 nM end concentration) and TR-FRET detection reagents [1.67 nM anti-His-Eu cryptate and 1.67 nM streptavidin-XL665 (both from Cisbio Bioassays, Codolet, France)], were added.
The mixture was incubated in the dark for one hour at 22° C. and then overnight at 4° C. The formation of BCL-XL/Bad complexes was determined by measuring the resonance energy transfer of the anti-His-Eu-cryptate antibody to the streptavidin-XL665 present in the reaction. For that purpose, the fluorescence emission at 620 nm and 665 nm after excitation at 330-350 nm was measured in a TR-FRET measuring instrument, for instance a Rubystar or a Pherastar (both from BMG Lab Technologies, Offenburg, Germany) or a Viewlux (Perkin-Elmer). The ratio of the emission at 665 nm and at 622 nm was used as indicator of the amount of BCL-XL/Bad complexes present.
The resulting data (ratio) were normalized, taking 0% inhibition as the mean value of control measurements (usually 32 data points) where all reagents were included. In this case 50 nl DMSO were used instead of compounds. A 100% inhibition corresponded to the mean value of control measurements (usually 32 data points) where all reagents except BCL-XL were included. IC50 values were determined by regression analysis based on a 4 parameter equation (minimum, maximum, IC50, Hill; Y=Max+(Min−Max)/(1+(X/IC50)^Hill) using the Screener Software (Genedata).

In another test the target is MCL1 protein (Homo sapiens (Human), UniProt Q07820). Nature of the test: PIxEL: protein-protein interaction in permeabilized cells by ELISA (Assay 5). As to conditions: permeabilized RKO cells, biotin-BIM BH3 peptide, median. The class given is cell-based. The protocol: Assay 5 PI×EL: Protein-Protein Interaction in Permeabilized Cells by ELISA
Sequence of MCL1 protein (Q07820 whole entry, the tested form may be a part): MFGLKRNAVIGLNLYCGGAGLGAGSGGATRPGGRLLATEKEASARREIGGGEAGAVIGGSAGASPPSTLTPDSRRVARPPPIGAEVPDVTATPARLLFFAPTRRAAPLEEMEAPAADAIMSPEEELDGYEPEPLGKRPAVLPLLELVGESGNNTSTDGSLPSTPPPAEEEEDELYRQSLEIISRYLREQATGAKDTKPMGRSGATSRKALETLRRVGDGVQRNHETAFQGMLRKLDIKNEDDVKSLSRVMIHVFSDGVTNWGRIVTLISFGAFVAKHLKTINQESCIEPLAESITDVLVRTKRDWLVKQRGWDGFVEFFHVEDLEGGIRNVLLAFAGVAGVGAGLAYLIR
Most MCL1 protein molecules are localized at the mitochondria outer membrane and sequester pro-apoptotic proteins through binding of their BCL2 homology domain 3 (BH3 domain). MEB buffer (150 mM mannitol, 10 mM HEPES pH 7.5, 50 mM KCl, 20 μM EDTA, 20 μM EGTA, 5 mM potassium succinate, 0.1% protease-free BSA (SIGMA) with low dose digitonin (0.002%) permeabilizes plasma membrane while leaves live mitochondria, where MCL1 maintains its native localization and conformation. Unlike biophysical assays (e.g. TR-FRET) that use truncated recombinant MCL1 protein, this assay uses full length endogenous MCL1 protein at mitochondria outer membrane. It measures the interaction between MCL1 protein and biotinylated BIM BH3 peptide. Compounds can compete with BIM BH3 peptide to bind to MCL1 protein. This serum free assay measures the affinity between MCL1 protein and compound in permeabilized cells, therefore it is not affected by serum binding and cell permeability, and can measure the intrinsic compound affinity.
On day 1, RKO colon cancer cell line cells were plated at 0.8 million cells/ml, 100 μl/well in 96-well flat bottom TC plates (Corning). MCL1 antibody (Santa Cruz sc-12756) were diluted at 200 fold (final concentration 1 μg/ml) in carbonate buffer (Thermo Fisher Scientific, pH 9.6), and 50 μl of diluted antibody was added to each well of high bind ELISA plates (SARSTEDT). Each plate was tapped to make sure liquid covering entire bottom of wells and incubate at 37° C. overnight.
On the second day, MCL1 antibody was washed from ELISA plate. 250 μl Odyssey® Blocking Buffer (PBS) (Li-Cor) was added to each well, incubated at room temperature for at least 1 hour, then washed once with 250 μl 1×PBST. Plates with RKO cells were gently washed once with 100 μl/well PBS, once with 100 μl/well MEB buffer without digitonin, then 100 μl of MEB buffer with 0.002% digitonin was gently added to each well. Compounds were added with HP Tecan compound dispenser in 3-fold dilution series, highest dose 30 μM, 10-dose per compound in quadruplicates. Biotin-BIM peptide (synthesized by 21st Century) was added with HP Tecan compound dispenser at 0.2 μM immediately after the addition of compounds. Plates were rocked for 1 hour at room temperature. Then MEB buffer was aspirated and 50 μl of CHAPS buffer (50 mM Tris-Cl, pH 7.4, 150 mM NaCl, 1% CHAPS, 1 mM EDTA, 1 mM EGTA, complete protease inhibitors (Roche), PhosSTOP (Roche)) was added to each well. Plates were rocked for 1 hour at 4° C., then 45 μl cell lysate from each well were transferred to ELISA plates coated with MCL1 antibody. Plates were incubated overnight in the cold room with rocking.
On the third day, ELISA plates were washed once with 250 μl 1×PBST. Streptavidin-poly-HRP (Thermo Fisher Scientific) was diluted to 20 ng/ml in Odyssey blocking buffer plus 0.05% Triton-100, and 100 μl was added to each well of the ELISA plate. Plates were incubated at room temperature for 1 hour with rocking, then washed with 100 μL 1×PBST for 3 times. Each SuperSignal ELISA Femto Maximum Sensitivity substrate was added to a 50-ml tube and mixed, then 100 μl of mixed substrate was added to each well. Plates were shaken for 1 minute then luminescence was measured by Envision plate reader […]. Signal of each well were normalized by no-compound control and no-cell control. IC50 was calculated using Graphic Pad PRISM software.

Sequence of BCL-XL (Q07817 1-212): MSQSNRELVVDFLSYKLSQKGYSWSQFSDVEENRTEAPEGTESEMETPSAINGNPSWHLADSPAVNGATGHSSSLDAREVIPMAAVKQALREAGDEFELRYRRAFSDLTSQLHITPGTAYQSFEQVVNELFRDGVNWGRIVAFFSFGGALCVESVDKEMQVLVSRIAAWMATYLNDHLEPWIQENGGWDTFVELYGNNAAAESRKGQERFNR

The term IC50 denotes the concentration needed to halve the response being measured. A low value points to higher potency. For the molecule `CCc1nn(C)c2c1-c1c(F)ccc3c(CCCOc4cc(C)c(Cl)c(C)c4)c(C(=O)O)n(c13)CCCCOC2` (racemic) [Example 46, (rac)-1-(3-(4-chloro-3,5-dimethylphenoxy)propyl)-12-ethyl-13-fluoro-10-methyl-4,5,6,7,9,10-hexahydropyrazolo[4′,3′:9,10][1]oxa[6]azacycloundecino[8,7,6-hi]indole-2-carboxylic acid], the IC50 against BCL-XL was more than 20 µM.
`CCc1c2c(nn1C)CN(C)CCCCn1c(C(=O)O)c(CCCOc3cccc4c3CCC4)c3ccc(F)c-2c31` (racemic) [Example 51, (rac)-7-[3-(2,3-dihydro-1H-inden-4-yloxy)propyl]-3-ethyl-4-fluoro-2,14-dimethyl-10,11,12,13,14,15-hexahydro-2H-pyrazolo[3′,4′:8,9][1,6]diazacycloundecino[10,11,1-hi]indole-8-carboxylic acid] gave an IC50 on BCL-XL of more than 20 µM.
Same read-out and setting: next, `CCc1c2c(nn1C)CN(C)CCCCn1c(C(=O)O)c(CCCOc3cccc4c3CCCC4)c3ccc(F)c-2c31` (racemic) [Example 52, (rac)-3-ethyl-4-fluoro-2,14-dimethyl-7-[3-(5,6,7,8-tetrahydronaphthalen-1-yloxy)propyl]-10,11,12,13,14,15-hexahydro-2H-pyrazolo[3′,4′:8,9][1,6]diazacycloundecino[10,11,1-hi]indole-8-carboxylic acid]: more than 20 µM; `CCc1c2c(nn1C)CN(C)CCCCn1c(C(=O)O)c(CCCOc3cccc4cc(F)ccc34)c3ccc(F)c-2c31` (racemic) [Example 53, (rac)-3-ethyl-4-fluoro-7-{3-[(6-fluoro-1-naphthyhoxy]propyl}-2,14-dimethyl-10,11,12,13,14,15-hexahydro-2H-pyrazolo[3′,4′:8,9][1,6]diazacycloundecino[10,11,1-hi]indole-8-carboxylic acid]: more than 20 µM; `CCc1c2c(nn1C)CN(C)CCCCn1c(C(=O)O)c(CCCOc3cccc4ccccc34)c3ccc(F)c-2c31` (racemic) [Example 54, (rac)-3-ethyl-4-fluoro-2,14-dimethyl-7-[3-(1-naphthyloxy)propyl]-10,11,12,13,14,15-hexahydro-2H-pyrazolo[3′,4′:8,9][1,6]diazacycloundecino[10,11,1-hi]indole-8-carboxylic acid]: more than 20 µM.
On to `Cc1c2c(nn1C)COCCCCn1c(C(=O)O)c(CCCOc3cccc4ccccc34)c3ccc(F)c-2c31` (single isomer, unassigned; enantiomer 1) [Example 3, 4-fluoro-2,3-dimethyl-7-[3-(naphthalen-1-yloxy)propyl]-2,10,11,12,13,15-hexahydropyrazolo-[4′,3′:9,10][1,6]oxazacycloundecino[8,7,6-hi]indole-8-carboxylic acid-N-ethylethanamine salt (enantiomer 1)], for which, on MCL1 protein, the IC50 came to 1.4 µM.
In the case of `CCc1c2c(nn1C)COCCCCn1c(C(=O)O)c(CCCOc3cccc4ccccc34)c3ccc(F)c-2c31` (single isomer, unassigned; enantiomer 1) [Example 7, 3-ethyl-4-fluoro-2-methyl-7-{3-[(naphthalen-1-yl)oxy]propyl}-2,10,11,12,13,15-hexahydro-pyrazolo[4′,3′:9,10][1,6]oxazacycloundecino[8,7,6-hi]indole-8-carboxylic acid-N-ethylethanamine salt (enantiomer 1)], at MCL1 protein, half-maximal inhibition (IC50) was put at 2.06 µM.
`Cc1c2c(nn1C)COCCCCn1c(C(=O)O)c(CCCOc3cccc4cc(F)ccc34)c3ccc(F)c-2c31` (single isomer, unassigned; enantiomer 1) [Example 13, 4-fluoro-7-{3-[(6-fluoronaphthalen-1-yl)oxy]propyl}-2,3-dimethyl-2,10,11,12,13,15-hexahydro-pyrazolo[4′,3′:9,10][1,6]oxazacycloundecino[8,7,6-hi]indole-8-carboxylic acid-N-ethylethanamine salt (enantiomer 1)] came in with an IC50 against MCL1 protein of 0.872 µM.
On the same count and under the same terms, next, `CCc1c2c(nn1C)COCCCCn1c(C(=O)O)c(CCCOc3cccc4cc(F)ccc34)c3ccc(F)c-2c31` (single isomer, unassigned; enantiomer 1) [Example 22, 3-ethyl-4-fluoro-7-{3-[(6-fluoronaphthalen-1-yl)oxy]propyl}-2-methyl-2,10,11,12,13,15-hexahydropyrazolo[4′,3′:9,10][1,6]oxazacycloundecino[8,7,6-hi]indole-8-carboxylic acid-N-ethylethanamine salt (enantiomer 1)]: 1.34 µM.
In turn, `Cc1c2c(nn1C)CNCCCCn1c(C(=O)O)c(CCCOc3cccc4ccccc34)c3ccc(F)c-2c31` (single isomer, unassigned; enantiomer 1) [Example 48, 4-fluoro-2,3-dimethyl-7-{3-[(naphthalen-1-yl)oxy]propyl}-10,11,12,13,14,15-hexahydro-2H-pyrazolo[3′,4′:8,9][1,6]diazacycloundecino[10,11,1-hi]indole-8-carboxylic acid (enantiomer 1)] came in with an IC50 against BCL-XL of more than 20 µM.
Still for that read-out and setting: next, “(rac)-1-(3-((2,3-dihydro-1H-inden-4-yl)oxy)propyl)-12-ethyl-13-fluoro-11-methyl-4,5,6,7,9,11-hexahydropyrazolo[4′,3′:9,10][1]oxa[6]azacycloundecino[8,7,6-hi]indole-2-carboxylic acid [Example 30]”: more than 20 µM.
